Source: patent US8519096B2, “Citrullinated peptides for diagnosing and prognosing rheumatoid arthritis” (Nestec S.A., priority 2009, dated 2013)
Non-standard residues stand in square brackets, D forms with d. *: point of attachment. Biotin = O=C1N[C@H]2[C@H](CS[C@H]2CCCCC(=O)*)N1; Cit = NC(=O)NCCC[C@H](N)C(=O)O

Tests used:
[1] = test system: anti-citrullinated protein antibodies (ACPAs); conditions: FIG. 3 and FIG. 7; compared with the other peptides tested
Procedure: (§1) This example describes an enzyme-linked immunosorbent assay (ELISA) for detecting (e.g., measuring) the presence (or absence) or level of anti-citrullinated protein antibodies (ACPAs) in an individual's sample. As a non-limiting example, a 96-well immunoassay plate was coated with avidin (e.g., neutravidin) and the plate was blocked with 5% bovine serum albumin in phosphate buffered saline. Biotinylated synthetic citrullinated peptides of the present invention were incubated with the avidin-coated plate. […] Unbound samples were washed out and RA-associated autoantibodies directed against the immobilized citrullinated peptide were detected with an enzyme-labeled (e.g., HRP-labeled) anti-human IgA, IgG, IgM, or IgA/G/M secondary antibody.

IgG ACPAs = test: ACPA ELISA with anti-human IgG secondary antibody; type: binding; conditions: for IgG ACPA positive response (strong/moderate): Example 7, FIGS. 20-27
Procedure: The synthetic citrullnated peptides set forth in Example 6, which were designed from synovial proteins, were synthesized and evaluated for their ability to diagnose and/or prognose RA. […] The peptides were then tested for IgG ACPA dose-response in samples of synovial fluid taken from both healthy patients and patients with RA.

IgA/G/M ACPAs = test system: IgA/G/M ACPAs
Procedure: as §1

IgA ACPAs = test system: IgA ACPAs
Procedure: as §1

IgM ACPAs = test system: IgM ACPAs
Procedure: as §1

“Biotin-HSTK[Cit]GHAKSRPV[Cit]G-NH2 [FB4]” was tested, and the “dose-response curve in ACPA ELISA (in words)” value (“dose-response curve” below) [1] was “stronger dose-response curve”.
In the case of “Biotin-GGGATRSSAVRL[Cit]SSVPGVRLLQDS-NH2 [VMT3]”, the “sensitivity for autoantibodies of the IgG class (in words)” value (IgG ACPAs) is reported as “particularly high sensitivity”, the “sensitivity for autoantibodies of the IgA/G/M classes (in words)” value (IgA/G/M ACPAs) is reported as “particularly high sensitivity” and the “dose-response curve” value [1] is reported as “strong dose-response curves”.
With “Biotin-GGGATRSSAV[Cit]LRSSVPGVRLLQDS-NH2 [VMT2]” the “IgG ACPA positive response (strong/moderate)” value (IgG ACPAs) was “moderate”, the “sensitivity for autoantibodies of the IgA class (in words)” value (IgA ACPAs) was “particularly high sensitivity” and the “dose-response curve” value [1] was “strong dose-response curves”. For the same substance, the “sensitivity for autoantibodies of the IgM class (in words)” value (IgM ACPAs) was “particularly high sensitivity”.
With “T2α1-3: synthetic citrullinated peptide derived from collagen (Coll.T2α1), Table 8 (Biotin-KWGKTVIEY[Cit]SQKTSRLYRSQKTS[Cit]LG-NH2; SMILES CC[C@H](C)[C@H](NC(=O)[C@@H](NC(=O)[C@@H](NC(=O)[C@H](CCCCN)NC(=O)CNC(=O)[C@H](Cc1c[nH]c2ccccc12)NC(=O)[C@H](CCCCN)NC(=O)CCCC[C@@H]1SC[C@@H]2NC(=O)N[C@@H]21)[C@@H](C)O)C(C)C)C(=O)N[C@@H](CCC(=O)O)C(=O)N[C@@H](Cc1ccc(O)cc1)C(=O)N[C@@H](CCCNC(N)=O)C(=O)N[C@@H](CO)C(=O)N[C@@H](CCC(N)=O)C(=O)N[C@@H](CCCCN)C(=O)N[C@H](C(=O)N[C@@H](CO)C(=O)N[C@@H](CCCNC(=N)N)C(=O)N[C@@H](CC(C)C)C(=O)N[C@@H](Cc1ccc(O)cc1)C(=O)N[C@@H](CCCNC(=N)N)C(=O)N[C@@H](CO)C(=O)N[C@@H](CCC(N)=O)C(=O)N[C@@H](CCCCN)C(=O)N[C@H](C(=O)N[C@@H](CO)C(=O)N[C@@H](CCCNC(N)=O)C(=O)N[C@@H](CC(C)C)C(=O)NCC(N)=O)[C@@H](C)O)[C@@H](C)O)” the “IgG ACPA positive response (strong/moderate)” value (IgG ACPAs) was “moderate”.
For “Biotin-GGGAT[Cit]SSAV[Cit]L[Cit]SSVPGV[Cit]LLQDS-NH2 [VMT5]”, the “dose-response curve” value [1] was “weak dose-response curve”.
“H2A-1: synthetic citrullinated peptide derived from histone (H2A), Table 8 (Biotin-GLELAGNAA[Cit]DNKKTRIIP[Cit]HLQG-NH2; SMILES CC[C@H](C)[C@H](NC(=O)[C@H](CCCNC(=N)N)NC(=O)[C@@H](NC(=O)[C@H](CCCCN)NC(=O)[C@H](CCCCN)NC(=O)[C@H](CC(N)=O)NC(=O)[C@H](CC(=O)O)NC(=O)[C@H](CCCNC(N)=O)NC(=O)[C@H](C)NC(=O)[C@H](C)NC(=O)[C@H](CC(N)=O)NC(=O)CNC(=O)[C@H](C)NC(=O)[C@H](CC(C)C)NC(=O)[C@H](CCC(=O)O)NC(=O)[C@H](CC(C)C)NC(=O)CNC(=O)CCCC[C@@H]1SC[C@@H]2NC(=O)N[C@@H]21)[C@@H](C)O)C(=O)N[C@H](C(=O)N1CCC[C@H]1C(=O)N[C@@H](CCCNC(N)=O)C(=O)N[C@@H](Cc1c[nH]cn1)C(=O)N[C@@H](CC(C)C)C(=O)N[C@@H](CCC(N)=O)C(=O)NCC(N)=O)[C@@H](C)CC)” was tested, and the “IgG ACPA positive response (strong/moderate)” value (IgG ACPAs) was “moderate”.
In the case of “H2B-2: synthetic citrullinated peptide derived from histone (H2B), Table 8 (Biotin-SFVNDIFE[Cit]IAGEAS[Cit]LAHYNKRSTITS[Cit]EG-NH2; SMILES CC[C@H](C)[C@H](NC(=O)[C@H](CCCNC(N)=O)NC(=O)[C@H](CCC(=O)O)NC(=O)[C@H](Cc1ccccc1)NC(=O)[C@@H](NC(=O)[C@H](CC(=O)O)NC(=O)[C@H](CC(N)=O)NC(=O)[C@@H](NC(=O)[C@H](Cc1ccccc1)NC(=O)[C@H](CO)NC(=O)CCCC[C@@H]1SC[C@@H]2NC(=O)N[C@@H]21)C(C)C)[C@@H](C)CC)C(=O)N[C@@H](C)C(=O)NCC(=O)N[C@@H](CCC(=O)O)C(=O)N[C@@H](C)C(=O)N[C@@H](CO)C(=O)N[C@@H](CCCNC(N)=O)C(=O)N[C@@H](CC(C)C)C(=O)N[C@@H](C)C(=O)N[C@@H](Cc1c[nH]cn1)C(=O)N[C@@H](Cc1ccc(O)cc1)C(=O)N[C@@H](CC(N)=O)C(=O)N[C@@H](CCCCN)C(=O)N[C@@H](CCCNC(=N)N)C(=O)N[C@@H](CO)C(=O)N[C@H](C(=O)N[C@H](C(=O)N[C@H](C(=O)N[C@@H](CO)C(=O)N[C@@H](CCCNC(N)=O)C(=O)N[C@@H](CCC(=O)O)C(=O)NCC(N)=O)[C@@H](C)O)[C@@H](C)CC)[C@@H](C)O)”, the “IgG ACPA positive response (strong/moderate)” value (IgG ACPAs) is reported as “moderate”.
For “FBNT-7: synthetic citrullinated peptide derived from fibronectin, Table 8 (Biotin-GP[Cit]EDRVPHSPRED[Cit]VPHS[Cit]NSITLTNG-NH2; SMILES CC[C@H](C)[C@H](NC(=O)[C@H](CO)NC(=O)[C@H](CC(N)=O)NC(=O)[C@H](CCCNC(N)=O)NC(=O)[C@H](CO)NC(=O)[C@H](Cc1c[nH]cn1)NC(=O)[C@@H]1CCCN1C(=O)[C@@H](NC(=O)[C@H](CCCNC(N)=O)NC(=O)[C@H](CC(=O)O)NC(=O)[C@H](CCC(=O)O)NC(=O)[C@H](CCCNC(=N)N)NC(=O)[C@@H]1CCCN1C(=O)[C@H](CO)NC(=O)[C@H](Cc1c[nH]cn1)NC(=O)[C@@H]1CCCN1C(=O)[C@@H](NC(=O)[C@H](CCCNC(=N)N)NC(=O)[C@H](CC(=O)O)NC(=O)[C@H](CCC(=O)O)NC(=O)[C@H](CCCNC(N)=O)NC(=O)[C@@H]1CCCN1C(=O)CNC(=O)CCCC[C@@H]1SC[C@@H]2NC(=O)N[C@@H]21)C(C)C)C(C)C)C(=O)N[C@H](C(=O)N[C@@H](CC(C)C)C(=O)N[C@H](C(=O)N[C@@H](CC(N)=O)C(=O)NCC(N)=O)[C@@H](C)O)[C@@H](C)O)”, the “IgG ACPA positive response (strong/moderate)” value (IgG ACPAs) was “moderate”.
In the case of “Biotin-[Cit]PAPPPISGGGY[Cit]A[Cit]-NH2 [FB3]”, the “dose-response curve” value [1] is reported as “stronger dose-response curve”.
In the case of “FBNT-3: synthetic citrullinated peptide derived from fibronectin, Table 8 (Biotin-GVLV[Cit]WTPPRLVRWTPP[Cit]AQG-NH2; SMILES CC(C)C[C@H](NC(=O)[C@H](CCCNC(=N)N)NC(=O)[C@@H]1CCCN1C(=O)[C@@H]1CCCN1C(=O)[C@@H](NC(=O)[C@H](Cc1c[nH]c2ccccc12)NC(=O)[C@H](CCCNC(N)=O)NC(=O)[C@@H](NC(=O)[C@H](CC(C)C)NC(=O)[C@@H](NC(=O)CNC(=O)CCCC[C@@H]1SC[C@@H]2NC(=O)N[C@@H]21)C(C)C)C(C)C)[C@@H](C)O)C(=O)N[C@H](C(=O)N[C@@H](CCCNC(=N)N)C(=O)N[C@@H](Cc1c[nH]c2ccccc12)C(=O)N[C@H](C(=O)N1CCC[C@H]1C(=O)N1CCC[C@H]1C(=O)N[C@@H](CCCNC(N)=O)C(=O)N[C@@H](C)C(=O)N[C@@H](CCC(N)=O)C(=O)NCC(N)=O)[C@@H](C)O)C(C)C)”, the “IgG ACPA positive response (strong/moderate)” value (IgG ACPAs) is reported as “moderate”.
“FIB-A6: 25-mer citrullinated peptide: fibrinogen alpha chain amino acids 451-465 linked to 509-517, Cys461 to Ser (Biotin-GSGSTTTTR[Cit]SSSKTVFRH[Cit]HPDEA-NH2; SMILES CC(C)[C@H](NC(=O)[C@@H](NC(=O)[C@H](CCCCN)NC(=O)[C@H](CO)NC(=O)[C@H](CO)NC(=O)[C@H](CO)NC(=O)[C@H](CCCNC(N)=O)NC(=O)[C@H](CCCNC(=N)N)NC(=O)[C@@H](NC(=O)[C@@H](NC(=O)[C@@H](NC(=O)[C@@H](NC(=O)[C@H](CO)NC(=O)CNC(=O)[C@H](CO)NC(=O)CNC(=O)CCCC[C@@H]1SC[C@@H]2NC(=O)N[C@@H]21)[C@@H](C)O)[C@@H](C)O)[C@@H](C)O)[C@@H](C)O)[C@@H](C)O)C(=O)N[C@@H](Cc1ccccc1)C(=O)N[C@@H](CCCNC(=N)N)C(=O)N[C@@H](Cc1c[nH]cn1)C(=O)N[C@@H](CCCNC(N)=O)C(=O)N[C@@H](Cc1c[nH]cn1)C(=O)N1CCC[C@H]1C(=O)N[C@@H](CC(=O)O)C(=O)N[C@@H](CCC(=O)O)C(=O)N[C@@H](C)C(N)=O)” was tested, and the “IgG ACPA positive response (strong/moderate)” value (IgG ACPAs) was “moderate”.
